# In publication PMC11303713, “Allosteric inhibition of CFTR gating by CFTRinh-172 binding in the pore” (Nature Communications, 2024):
# Several values for one entry are separate records, joined by “and”; a condition that tells them apart may be missing. Identical values can stand only once. Like-named read-outs stand apart in the source and are kept apart here.
# Target: T1, p-hTMD1-p-CFTR (pig CFTR with human CFTR's TMD1) (Sus scrofa, UniProt Q6PQZ2, A115E/A228G/F12V/H39Q/I11V/I421T/I87F/K242R/K407E/L215I/L315F/L328I/M332I/N256S/N426D/P145L/S418N/S41P/S43V/S445N/T209A/V125I/V231I)
# T1 construct: expressed in transfected cells; host or cells: CHO cells, pcDNA plasmid
# Assay: Inside-out patch-clamp inhibition of CFTR current by Inh-172
# Type: cell-based
# T1 sequence (Q6PQZ2 1-1482 with the stated changes): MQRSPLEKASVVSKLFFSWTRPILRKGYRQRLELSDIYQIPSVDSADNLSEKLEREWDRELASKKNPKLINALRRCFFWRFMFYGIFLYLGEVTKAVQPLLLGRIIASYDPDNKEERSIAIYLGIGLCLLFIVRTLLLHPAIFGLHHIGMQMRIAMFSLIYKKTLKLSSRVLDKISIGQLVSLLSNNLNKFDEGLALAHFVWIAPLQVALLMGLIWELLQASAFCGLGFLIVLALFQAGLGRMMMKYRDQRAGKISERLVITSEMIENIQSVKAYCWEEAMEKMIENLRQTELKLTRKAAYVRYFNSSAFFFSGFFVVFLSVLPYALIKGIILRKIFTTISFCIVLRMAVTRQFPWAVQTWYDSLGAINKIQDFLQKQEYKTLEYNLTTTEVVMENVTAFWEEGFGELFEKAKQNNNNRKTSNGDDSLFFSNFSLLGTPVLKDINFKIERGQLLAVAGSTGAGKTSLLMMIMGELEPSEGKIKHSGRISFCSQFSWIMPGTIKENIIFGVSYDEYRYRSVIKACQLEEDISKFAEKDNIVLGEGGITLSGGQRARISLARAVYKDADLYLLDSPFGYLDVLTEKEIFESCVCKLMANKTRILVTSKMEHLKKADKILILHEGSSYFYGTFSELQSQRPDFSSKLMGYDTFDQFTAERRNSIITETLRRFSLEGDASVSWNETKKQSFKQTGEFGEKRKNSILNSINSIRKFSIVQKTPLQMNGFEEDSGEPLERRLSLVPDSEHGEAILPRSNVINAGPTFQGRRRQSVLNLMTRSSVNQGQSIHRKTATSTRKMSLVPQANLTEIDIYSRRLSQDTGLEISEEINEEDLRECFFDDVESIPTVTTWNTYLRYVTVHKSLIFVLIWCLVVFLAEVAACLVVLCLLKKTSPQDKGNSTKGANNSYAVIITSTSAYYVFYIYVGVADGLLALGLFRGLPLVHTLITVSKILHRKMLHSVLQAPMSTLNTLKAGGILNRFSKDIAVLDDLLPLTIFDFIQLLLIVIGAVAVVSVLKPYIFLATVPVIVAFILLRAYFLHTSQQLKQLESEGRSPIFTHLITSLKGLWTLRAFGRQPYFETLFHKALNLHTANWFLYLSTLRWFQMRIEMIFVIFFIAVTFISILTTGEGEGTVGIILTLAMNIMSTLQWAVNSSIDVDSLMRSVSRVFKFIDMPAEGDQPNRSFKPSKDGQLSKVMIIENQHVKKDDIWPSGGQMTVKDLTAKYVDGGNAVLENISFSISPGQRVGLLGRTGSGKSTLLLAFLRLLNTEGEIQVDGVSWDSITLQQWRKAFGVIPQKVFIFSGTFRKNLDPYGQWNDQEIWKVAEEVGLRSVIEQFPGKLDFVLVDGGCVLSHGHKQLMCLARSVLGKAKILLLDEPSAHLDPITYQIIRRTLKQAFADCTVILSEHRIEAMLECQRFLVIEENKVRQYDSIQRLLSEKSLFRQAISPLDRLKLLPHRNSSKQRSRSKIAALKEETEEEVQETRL
compound,measurement,setting,value
"O=C(O)c1ccc(/C=C2\SC(=S)N(c3cccc(C(F)(F)F)c3)C2=O)cc1 [Inh-172, CFTRinh-172]","percent inhibition of current, individual cell",100 nM Inh-172,4 and 3 and 1
same,inhibition at 0.1 µM,"100 nM Inh-172, read-out: percent inhibition of current, Mean",2.7%
same,"percent inhibition of current, individual cell",500 nM Inh-172,17 and 15
same,inhibition at 0.5 µM,"500 nM Inh-172, read-out: percent inhibition of current, Mean",17.3%
same,inhibition at 0.5 µM,"500 nM Inh-172, read-out: percent inhibition of current, individual cell",20%
same,"percent inhibition of current, individual cell",1000 nM Inh-172,30 and 24
same,inhibition at 1 µM,"1000 nM Inh-172, read-out: percent inhibition of current, Mean",32%
same,inhibition at 1 µM,"1000 nM Inh-172, read-out: percent inhibition of current, individual cell",42%
same,"percent inhibition of current, individual cell",5000 nM Inh-172,67 and 68
same,inhibition at 5 µM,"5000 nM Inh-172, read-out: percent inhibition of current, Mean",68.7%
same,inhibition at 5 µM,"5000 nM Inh-172, read-out: percent inhibition of current, individual cell",71%
same,"percent inhibition of current, individual cell",10000 nM Inh-172,83 and 81
same,inhibition at 10 µM,"10000 nM Inh-172, read-out: percent inhibition of current, Mean",83.3%
same,inhibition at 10 µM,"10000 nM Inh-172, read-out: percent inhibition of current, individual cell",86%
same,Hill Coefficient,p-hTMD1-p,1.03 ± 0.03
same,IC50,p-hTMD1-p,2210 ± 70 nM
